Source: PubChem BioAssay AID256 (DTP/NCI, 2004)
Values joined by “and” are separate entries in the source; they are usually repeats but may differ in a detail not shown here. Equal entries are not always repeated. Toxic doses and inconclusive results are not listed.

System: CD2F1 mice, L1210 leukemia ip, survival T/C
Test: NCI In Vivo Anticancer Drug Screen. Data for tumor model L1210 Leukemia (intraperitoneal) in CD2F1 (CDF1) mice
Details: endpoint: mean survival time, higher = longer survival
Summary of the method: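 Mice carrying a transplanted tumor received test compound or vehicle alone. The value is the measurement in the treated group divided by that in the vehicle-treated control group.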

[1] = dose: 25.0 mg/kg/injection, schedule: Q01DX009 (ip), vehicle: saline
[2] = dose: 50.0 mg/kg/injection, schedule: Q01DX009 (ip), vehicle: saline
[3] = dose: 100.0 mg/kg/injection, schedule: Q01DX001 (ip), vehicle: saline
[4] = dose: 100.0 mg/kg/injection, schedule: Q04DX003 (ip), vehicle: saline
[5] = dose: 200.0 mg/kg/injection, schedule: Q01DX001 (ip), vehicle: saline
[6] = dose: 200.0 mg/kg/injection, schedule: Q04DX003 (ip), vehicle: saline
[7] = dose: 100.0 mg/kg/injection, schedule: Q01DX001 (ip), vehicle: saline with Tween-80
[8] = dose: 200.0 mg/kg/injection, schedule: Q01DX001 (ip), vehicle: saline with Tween-80
[9] = dose: 400.0 mg/kg/injection, schedule: Q01DX001 (ip), vehicle: saline with Tween-80
[10] = dose: 100.0 mg/kg/injection, schedule: Q01DX009 (ip), vehicle: saline with Tween-80
[11] = dose: 200.0 mg/kg/injection, schedule: Q01DX009 (ip), vehicle: saline with Tween-80
[12] = dose: 400.0 mg/kg/injection, schedule: Q01DX009 (ip), vehicle: saline with Tween-80
[13] = dose: 100.0 mg/kg/injection, schedule: Q04DX003 (ip), vehicle: saline with Tween-80
[14] = dose: 200.0 mg/kg/injection, schedule: Q04DX003 (ip), vehicle: saline with Tween-80
[15] = dose: 400.0 mg/kg/injection, schedule: Q04DX003 (ip), vehicle: saline with Tween-80

## CS(=O)(=O)OCCCNCCCOS(C)(=O)=O
dose: 6.3 mg/kg/injection, schedule: Q01DX009 (ip), vehicle: saline
  T/C: 123 % of control
dose: 6.3 mg/kg/injection, schedule: Q04DX003 (ip), vehicle: saline
  T/C: 119 % of control and 114 % of control
dose: 10.0 mg/kg/injection, schedule: Q03DX003 (ip), vehicle: saline
  T/C: 121 % of control
dose: 12.5 mg/kg/injection, schedule: Q01DX001 (ip), vehicle: saline
  T/C: 121 % of control and 120 % of control
dose: 12.5 mg/kg/injection, schedule: Q04DX003 (ip), vehicle: saline
  T/C: 119 % of control
dose: 20.0 mg/kg/injection, schedule: Q01DX007 (ip), vehicle: saline
  T/C: 162 % of control
dose: 20.0 mg/kg/injection, schedule: Q01DX009 (ip), vehicle: saline
  T/C: 164 % of control and 170 % of control
dose: 20.0 mg/kg/injection, schedule: Q04DX003 (ip), vehicle: saline
  T/C: 152 % of control
dose: 23.0 mg/kg/injection, schedule: Q01DX009 (ip), vehicle: saline
  T/C: 160 % of control
dose: 25.0 mg/kg/injection, schedule: Q01DX001 (ip), vehicle: saline
  T/C: 110 % of control
[1]
  T/C: 162 % of control [middle of 4 runs]
dose: 25.0 mg/kg/injection, schedule: Q04DX003 (ip), vehicle: saline
  T/C: 151 % of control and 155 % of control
dose: 39.0 mg/kg/injection, schedule: Q01DX009 (ip), vehicle: saline
  T/C: 171 % of control
dose: 39.0 mg/kg/injection, schedule: Q04DX003 (ip), vehicle: saline
  T/C: 152 % of control
dose: 40.0 mg/kg/injection, schedule: Q01DX007 (ip), vehicle: saline
  T/C: 167 % of control
dose: 40.0 mg/kg/injection, schedule: Q01DX009 (ip), vehicle: saline
  T/C: 171 % of control and 189 % of control and 206 % of control
dose: 40.0 mg/kg/injection, schedule: Q04DX003 (ip), vehicle: saline
  T/C: 152 % of control
dose: 50.0 mg/kg/injection, schedule: Q01DX001 (ip), vehicle: saline
  T/C: 150 % of control
[2]
  T/C: 219 % of control and 181 % of control and 239 % of control
dose: 50.0 mg/kg/injection, schedule: Q04DX003 (ip), vehicle: saline
  T/C: 177 % of control [middle of 4 runs]
dose: 65.0 mg/kg/injection, schedule: Q01DX001 (oral), vehicle: saline
  T/C: 106 % of control
dose: 65.0 mg/kg/injection, schedule: Q01DX009 (ip), vehicle: saline
  T/C: 168 % of control
dose: 65.0 mg/kg/injection, schedule: Q01DX009 (oral), vehicle: saline
  T/C: 90 % of control
dose: 65.0 mg/kg/injection, schedule: Q04DX003 (ip), vehicle: saline
  T/C: 179 % of control
[3]
  T/C: 161 % of control and 172 % of control and 155 % of control
dose: 100.0 mg/kg/injection, schedule: Q01DX009 (ip), vehicle: saline
  T/C: 95 % of control and 121 % of control
[4]
  T/C: 261 % of control [middle of 5 runs]
dose: 108.0 mg/kg/injection, schedule: Q01DX001 (oral), vehicle: saline
  T/C: 121 % of control
dose: 108.0 mg/kg/injection, schedule: Q01DX009 (oral), vehicle: saline
  T/C: 86 % of control
dose: 108.0 mg/kg/injection, schedule: Q04DX003 (ip), vehicle: saline
  T/C: 205 % of control
dose: 108.0 mg/kg/injection, schedule: Q08DX002 (ip), vehicle: saline
  T/C: 150 % of control
dose: 180.0 mg/kg/injection, schedule: Q01DX001 (ip), vehicle: saline
  T/C: 150 % of control
dose: 180.0 mg/kg/injection, schedule: Q01DX001 (oral), vehicle: saline
  T/C: 119 % of control
[5]
  T/C: 277 % of control and 288 % of control and 517 % of control
[6]
  T/C: 121 % of control and 123 % of control

## CCCCCCCCCCCCCCCCOc1ccc(C(=O)CC(=O)OC)cc1
[7]
  T/C: 86 % of control
[8]
  T/C: 89 % of control
[9]
  T/C: 91 % of control

## CCC(O)(c1ccccc1)C(O)(CC)c1ccccc1 (stereo unspecified)
dose: 50.0 mg/kg/injection, schedule: Q04DX002 (ip), vehicle: saline with Tween-80
  T/C: 96 % of control
dose: 100.0 mg/kg/injection, schedule: Q04DX002 (ip), vehicle: saline with Tween-80
  T/C: 86 % of control

## O=c1[nH]c2c(ccc3cnccc32)c2c1CCC2
dose: 3.12 mg/kg/injection, schedule: Q01DX009 (ip), vehicle: saline
  T/C: 107 % of control
dose: 6.25 mg/kg/injection, schedule: Q01DX009 (ip), vehicle: saline
  T/C: 100 % of control and 110 % of control
dose: 12.5 mg/kg/injection, schedule: Q01DX009 (ip), vehicle: saline
  T/C: 96 % of control and 107 % of control
[1]
  T/C: 119 % of control and 111 % of control
[2]
  T/C: 88 % of control and 96 % of control

## C(=N\Nc1ccccc1)/c1ccc2c(c1)OCO2
[7]
  T/C: 100 % of control
[10]
  T/C: 97 % of control
[8]
  T/C: 101 % of control
[11]
  T/C: 104 % of control
[9]
  T/C: 95 % of control
[12]
  T/C: 100 % of control

## O=C(O)CSc1ccn(Cc2ccccc2)c1
[10]
  T/C: 94 % of control
[13]
  T/C: 106 % of control
[11]
  T/C: 88 % of control
[14]
  T/C: 98 % of control
[12]
  T/C: 88 % of control
[15]
  T/C: 98 % of control

## CCOC(=O)c1nc2cc(C)c(C)cc2[nH]c1=O
[10]
  T/C: 95 % of control
[11]
  T/C: 89 % of control
[12]
  T/C: 100 % of control

## Clc1ccc(-c2nnc(-c3ccc(Cl)cc3)nn2)cc1
[13]
  T/C: 96 % of control
[14]
  T/C: 90 % of control
[15]
  T/C: 88 % of control

## c1ccc2c(c1)Cc1c(NC3=NCCO3)cccc1-2
[13]
  T/C: 98 % of control
[14]
  T/C: 109 % of control
[15]
  T/C: 101 % of control

## N#CCC(=O)NN
[4]
  T/C: 103 % of control
[6]
  T/C: 108 % of control

## O=C1C=C(NS(=O)(=O)c2ccccc2)C(=O)c2ccccc21
[10]
  T/C: 101 % of control
[13]
  T/C: 101 % of control
[11]
  T/C: 97 % of control
[14]
  T/C: 95 % of control
[12]
  T/C: 97 % of control
[15]
  T/C: 89 % of control

## CCCCCCCCCCCCS
dose: 25.0 mg/kg/injection, schedule: Q04DX003 (ip), vehicle: saline with Tween-80
  T/C: 101 % of control
dose: 50.0 mg/kg/injection, schedule: Q04DX003 (ip), vehicle: saline with Tween-80
  T/C: 97 % of control
[13]
  T/C: 100 % of control and 108 % of control
[14]
  T/C: 91 % of control
[15]
  T/C: 91 % of control

## COc1ccc(-c2nc3ccccc3nc2-c2ccc(OC)cc2)cc1
[13]
  T/C: 94 % of control
[14]
  T/C: 94 % of control

## CC(C)CN(CC(C)C)c1ccc([N+](=O)[O-])cc1[N+](=O)[O-]
[10]
  T/C: 97 % of control
[11]
  T/C: 95 % of control
[12]
  T/C: 94 % of control

## COc1ccc(Cc2c[n+](C)cc3cc(N=O)c(OC)cc23)cc1O
[3]
  T/C: 104 % of control
[5]
  T/C: 102 % of control
